Test results as given in patent US20140088306A1, “RADIOACTIVE FLUORINE-LABELED QUINOXALINE COMPOUND” (Nihon Medi-Physics Co., Ltd., priority 2012, published 2014).

How the values were obtained:
amyloid plaques = assay: Autoradiography using postmortem brain section of patient with Alzheimer's disease (Example 7); type: binding, human (Alzheimer's disease patient); details: brain section (temporal lobe) of Alzheimer's disease patient; 0.37 MBq/100 μL, 1 hour
Description: A postmortem autopsy brain section (temporal lobe) of a patient with Alzheimer's disease was incubated together with each of [^18F]E3, [^18F]D3, [^18F]E1, and [^18F]E2 (0.37 MBq/100 μL each) at room temperature for 1 hour. The resultant was washed with a 50 volume % ethanol aqueous solution (2 minutes×2) and water (2 minutes×2), and after drying, the section was contacted with BAS imaging plate (from Fujifilm Corporation) for 1.5 hours. The image of autoradiography was obtained using BAS5000 scanner system (from Fujifilm Corporation).
A section adjacent to the brain section used was immunostained in the following manner.
First, a paraffin-embedded brain section of the Alzheimer's disease patient (temporal lobe, 6 μm in thickness) was incubated with xylene (15 minutes×2), ethanol (1 minute×2), a 90 volume % ethanol aqueous solution (1 minute×2), and a 70 volume % ethanol aqueous solution (1 minute×1) in that order for complete deparaffinization, and then washed in water (2.5 minutes×2). Thereafter, the section was subjected to autoclave treatment for 15 minutes in 0.01 mol/L citrate buffer solution (pH 6.0). The resultant was incubated in PBS-Tween20 (5 minutes×2), and a mouse anti-Aβ1-42 primary monoclonal antibody (from Wako Pure Chemical Industries Ltd.) was then added thereto, which was then incubated at room temperature overnight. The resultant was incubated in PBS-Tween20 (2 minutes×3), and a biotin-goat anti-mouse IgG (from Funakoshi Co., Ltd.) was then added thereto, which was then incubated at room temperature for 1 hour. The resultant was incubated in PBS-Tween20 (5 minutes×3), and a streptavidin-peroxidase complex (from Funakoshi Co., Ltd.) was added thereto, which was then incubated at room temperature for 30 minutes. In addition, the resultant was incubated in PBS-Tween20 (2 minutes×3); 3,3′-diaminobenzidine was added thereto, which was then incubated at room temperature for 30 minutes; and after washing with water, the section was observed under a microscope to provide an immunostained image (FIG. 10).

[1] = In vivo radioactivity distribution experiment (Example 8); details: ddY mice, tail vein, SD in parenthesis
Description: Through the tail vein of ddY mice (male, 5 week-old) was injected each of a 10 volume % ethanol-containing saline solution of [^18F]E3 (45.4 kBq, 100 μL), a 10 volume % ethanol-containing saline solution of [^18F]D3 (38.2 kBq, 100 μL), a 10 volume % ethanol-containing saline solution of [^18F]E1 (45.1 kBq, 100 μL), and a 10 volume % ethanol-containing saline solution of [^18F]E2 (40.6 kBq, 100 μL). Five mice were used for each group and sacrificed 2, 10, 30, and 60 minutes after administration to remove major organs. The blood and organs were weighed and further measured for radioactivity using a γ counter. The amount of radioactivity per unit mass was measured in each organ to evaluate radioactivity distribution.

In the case of “4-(7-(2-[^18F]Fluoroethoxy)quinoxalin-2-yl)-N,N-dimethylaniline [[^18F]E3]”, the “visualization of gray matter / amyloid plaques by autoradiography” value (amyloid plaques) is reported as “amyloid plaques were visualized”, the “Radioactivity Amount, Blood” value ([1]; 2 min. after) is reported as 2.26 (0.21) % injected dose/g and the “Radioactivity Amount, Blood” value ([1]; 10 min. after) is reported as 1.91 (0.68) % injected dose/g. For the same compound, the “Radioactivity Amount, Blood” value ([1]; 30 min. after) was 2.42 (0.17) % injected dose/g, the “Radioactivity Amount, Blood” value ([1]; 60 min. after) was 2.38 (0.25) % injected dose/g and the “Radioactivity Amount, Bone” value ([1]; 2 min. after) was 2.45 (0.43) % injected dose/g. For the same compound, the “Radioactivity Amount, Bone” value ([1]; 10 min. after) was 2.20 (0.09) % injected dose/g, the “Radioactivity Amount, Bone” value ([1]; 30 min. after) was 2.10 (0.39) % injected dose/g and the “Radioactivity Amount, Bone” value ([1]; 60 min. after) was 2.02 (0.36) % injected dose/g. For the same compound, the “Radioactivity Amount, Brain” value ([1]; 2 min. after) was 5.78 (0.60) % injected dose/g, the “Radioactivity Amount, Brain” value ([1]; 10 min. after) was 3.82 (0.33) % injected dose/g and the “Radioactivity Amount, Brain” value ([1]; 30 min. after) was 1.85 (0.09) % injected dose/g. The “Radioactivity Amount, Brain” value ([1]; 60 min. after) was 1.48 (0.07) % injected dose/g, the “Radioactivity Amount, Heart” value ([1]; 2 min. after) was 6.12 (0.79) % injected dose/g and the “Radioactivity Amount, Heart” value ([1]; 10 min. after) was 3.48 (0.56) % injected dose/g. For the same compound, the “Radioactivity Amount, Heart” value ([1]; 30 min. after) was 2.43 (0.12) % injected dose/g, the “Radioactivity Amount, Heart” value ([1]; 60 min. after) was 2.22 (0.08) % injected dose/g and the “Radioactivity Amount, Intestine” value ([1]; 2 min. after) was 3.24 (0.43) % injected dose/g. The “Radioactivity Amount, Intestine” value ([1]; 10 min. after) was 7.95 (1.28) % injected dose/g, the “Radioactivity Amount, Intestine” value ([1]; 30 min. after) was 16.2 (1.71) % injected dose/g and the “Radioactivity Amount, Intestine” value ([1]; 60 min. after) was 17.9 (3.64) % injected dose/g. For the same compound, the “Radioactivity Amount, Kidney” value ([1]; 2 min. after) was 8.65 (0.88) % injected dose/g, the “Radioactivity Amount, Kidney” value ([1]; 10 min. after) was 5.19 (0.88) % injected dose/g and the “Radioactivity Amount, Kidney” value ([1]; 30 min. after) was 3.30 (0.27) % injected dose/g. For the same compound, the “Radioactivity Amount, Kidney” value ([1]; 60 min. after) was 3.51 (1.21) % injected dose/g, the “Radioactivity Amount, Liver” value ([1]; 2 min. after) was 11.9 (1.35) % injected dose/g and the “Radioactivity Amount, Liver” value ([1]; 10 min. after) was 11.7 (0.80) % injected dose/g. For the same compound, the “Radioactivity Amount, Liver” value ([1]; 30 min. after) was 7.11 (1.56) % injected dose/g, the “Radioactivity Amount, Liver” value ([1]; 60 min. after) was 5.30 (0.82) % injected dose/g and the “Radioactivity Amount, Lung” value ([1]; 2 min. after) was 5.74 (0.48) % injected dose/g. For the same compound, the “Radioactivity Amount, Lung” value ([1]; 10 min. after) was 4.02 (0.32) % injected dose/g, the “Radioactivity Amount, Lung” value ([1]; 30 min. after) was 2.80 (0.15) % injected dose/g and the “Radioactivity Amount, Lung” value ([1]; 60 min. after) was 2.20 (0.14) % injected dose/g. The “Radioactivity Amount, Pancreas” value ([1]; 2 min. after) was 6.82 (0.80) % injected dose/g, the “Radioactivity Amount, Pancreas” value ([1]; 10 min. after) was 3.51 (0.37) % injected dose/g and the “Radioactivity Amount, Pancreas” value ([1]; 30 min. after) was 2.31 (0.19) % injected dose/g. For the same compound, the “Radioactivity Amount, Pancreas” value ([1]; 60 min. after) was 1.60 (0.18) % injected dose/g, the “Radioactivity Amount, Spleen” value ([1]; 2 min. after) was 3.67 (0.40) % injected dose/g and the “Radioactivity Amount, Spleen” value ([1]; 10 min. after) was 2.89 (0.37) % injected dose/g. For the same compound, the “Radioactivity Amount, Spleen” value ([1]; 30 min. after) was 2.31 (0.21) % injected dose/g, the “Radioactivity Amount, Spleen” value ([1]; 60 min. after) was 1.74 (0.05) % injected dose/g and the “Radioactivity Amount, Stomach*” value ([1]; 2 min. after) was 1.07 (0.20) % injected dose per organ. For the same compound, the “Radioactivity Amount, Stomach*” value ([1]; 10 min. after) was 2.54 (0.88) % injected dose per organ, the “Radioactivity Amount, Stomach*” value ([1]; 30 min. after) was 2.02 (0.63) % injected dose per organ and the “Radioactivity Amount, Stomach*” value ([1]; 60 min. after) was 1.42 (0.22) % injected dose per organ.

With `Nc1ccc(-c2cnc3ccc(OCC[18F])cc3n2)cc1` [[^18F]E1, 4-(7-(2-[^18F]Fluoroethoxy)quinoxalin-2-yl)aniline] the “visualization of gray matter / amyloid plaques by autoradiography” value (amyloid plaques) was “did not visualize the gray matter but rather strongly visualized the white matter”, the “Radioactivity Amount, Liver” value ([1]; 2 min. after) was 9.18 (1.45) % injected dose/g and the “Radioactivity Amount, Liver” value ([1]; 10 min. after) was 12.1 (1.82) % injected dose/g. For the same compound, the “Radioactivity Amount, Liver” value ([1]; 30 min. after) was 8.76 (1.01) % injected dose/g and the “Radioactivity Amount, Liver” value ([1]; 60 min. after) was 6.52 (0.93) % injected dose/g.

For `CNc1ccc(-c2cnc3ccc(OCC[18F])cc3n2)cc1` [[^18F]E2, 4-(7-(2-[^18F]Fluoroethoxy)quinoxalin-2-yl)-N-methylaniline], the “visualization of gray matter / amyloid plaques by autoradiography” value (amyloid plaques) was “did not visualize the gray matter but rather strongly visualized the white matter”, the “Radioactivity Amount, Blood” value ([1]; 2 min. after) was 3.37 (0.46) % injected dose/g and the “Radioactivity Amount, Blood” value ([1]; 10 min. after) was 3.83 (1.24) % injected dose/g. The “Radioactivity Amount, Blood” value ([1]; 30 min. after) was 3.10 (0.34) % injected dose/g, the “Radioactivity Amount, Blood” value ([1]; 60 min. after) was 3.40 (0.32) % injected dose/g and the “Radioactivity Amount, Bone” value ([1]; 2 min. after) was 1.86 (0.53) % injected dose/g. The “Radioactivity Amount, Bone” value ([1]; 10 min. after) was 1.91 (0.54) % injected dose/g, the “Radioactivity Amount, Bone” value ([1]; 30 min. after) was 2.07 (3.97) % injected dose/g and the “Radioactivity Amount, Bone” value ([1]; 60 min. after) was 2.36 (1.16) % injected dose/g. The “Radioactivity Amount, Brain” value ([1]; 2 min. after) was 5.96 (0.48) % injected dose/g, the “Radioactivity Amount, Brain” value ([1]; 10 min. after) was 3.77 (0.40) % injected dose/g and the “Radioactivity Amount, Brain” value ([1]; 30 min. after) was 2.18 (0.22) % injected dose/g. The “Radioactivity Amount, Brain” value ([1]; 60 min. after) was 1.91 (0.15) % injected dose/g, the “Radioactivity Amount, Heart” value ([1]; 2 min. after) was 7.42 (0.53) % injected dose/g and the “Radioactivity Amount, Heart” value ([1]; 10 min. after) was 4.41 (0.17) % injected dose/g. The “Radioactivity Amount, Heart” value ([1]; 30 min. after) was 8.53 (12.0) % injected dose/g, the “Radioactivity Amount, Heart” value ([1]; 60 min. after) was 3.92 (0.64) % injected dose/g and the “Radioactivity Amount, Intestine” value ([1]; 2 min. after) was 3.46 (0.75) % injected dose/g. For the same compound, the “Radioactivity Amount, Intestine” value ([1]; 10 min. after) was 12.5 (2.77) % injected dose/g, the “Radioactivity Amount, Intestine” value ([1]; 30 min. after) was 20.3 (2.55) % injected dose/g and the “Radioactivity Amount, Intestine” value ([1]; 60 min. after) was 22.1 (2.95) % injected dose/g. The “Radioactivity Amount, Kidney” value ([1]; 2 min. after) was 11.8 (2.51) % injected dose/g, the “Radioactivity Amount, Kidney” value ([1]; 10 min. after) was 7.55 (0.36) % injected dose/g and the “Radioactivity Amount, Kidney” value ([1]; 30 min. after) was 3.92 (0.45) % injected dose/g. The “Radioactivity Amount, Kidney” value ([1]; 60 min. after) was 3.12 (0.41) % injected dose/g, the “Radioactivity Amount, Liver” value ([1]; 2 min. after) was 6.84 (1.50) % injected dose/g and the “Radioactivity Amount, Liver” value ([1]; 10 min. after) was 11.7 (0.58) % injected dose/g. For the same compound, the “Radioactivity Amount, Liver” value ([1]; 30 min. after) was 7.95 (1.32) % injected dose/g, the “Radioactivity Amount, Liver” value ([1]; 60 min. after) was 6.95 (0.68) % injected dose/g and the “Radioactivity Amount, Lung” value ([1]; 2 min. after) was 6.71 (0.24) % injected dose/g. For the same compound, the “Radioactivity Amount, Lung” value ([1]; 10 min. after) was 4.98 (0.56) % injected dose/g, the “Radioactivity Amount, Lung” value ([1]; 30 min. after) was 3.34 (0.55) % injected dose/g and the “Radioactivity Amount, Lung” value ([1]; 60 min. after) was 4.06 (0.99) % injected dose/g. For the same compound, the “Radioactivity Amount, Pancreas” value ([1]; 2 min. after) was 5.42 (0.13) % injected dose/g, the “Radioactivity Amount, Pancreas” value ([1]; 10 min. after) was 4.91 (0.95) % injected dose/g and the “Radioactivity Amount, Pancreas” value ([1]; 30 min. after) was 2.60 (0.25) % injected dose/g. The “Radioactivity Amount, Pancreas” value ([1]; 60 min. after) was 2.73 (0.31) % injected dose/g, the “Radioactivity Amount, Spleen” value ([1]; 2 min. after) was 2.71 (0.44) % injected dose/g and the “Radioactivity Amount, Spleen” value ([1]; 10 min. after) was 4.53 (0.62) % injected dose/g. For the same compound, the “Radioactivity Amount, Spleen” value ([1]; 30 min. after) was 3.33 (0.66) % injected dose/g, the “Radioactivity Amount, Spleen” value ([1]; 60 min. after) was 3.17 (0.62) % injected dose/g and the “Radioactivity Amount, Stomach*” value ([1]; 2 min. after) was 1.13 (0.18) % injected dose per organ. For the same compound, the “Radioactivity Amount, Stomach*” value ([1]; 10 min. after) was 2.11 (0.55) % injected dose per organ, the “Radioactivity Amount, Stomach*” value ([1]; 30 min. after) was 1.56 (0.34) % injected dose per organ and the “Radioactivity Amount, Stomach*” value ([1]; 60 min. after) was 2.73 (2.44) % injected dose per organ.
